From ChEMBL document CHEMBL1201862, “PubChem BioAssay data set” (2004)
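Cells were grown in 96-well plates and exposed to each compound for 48 hours at five concentrations; endpoints were interpolated linearly between bracketing concentrations, or set to the highest concentration if not reached. GI50: concentration for 50% inhibition of growth.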 Calls of active or inactive are those of the source. Rule as the data show it: active = GI50 up to about 1.1 µM and inactive = higher.

Key:
Test in all cases: NCI anticancer screen, dose series, 48 h
[1] = system: U-251
[2] = system: UACC-62
[3] = system: RPMI-8226
[4] = system: NCI-H23
[5] = system: MOLT-4
[6] = system: PC-3
[7] = system: CAKI-1
[8] = system: SF-295
[9] = system: HT-29
[10] = system: OVCAR-5
[11] = system: A498
[12] = system: IGROV-1
[13] = system: UACC-257
[14] = system: HL-60
[15] = system: SF-268
[16] = system: SK-OV-3
[17] = system: ACHN
[18] = system: NCI/ADR-RES
[19] = system: SK-MEL-5
[20] = system: SK-MEL-2

Measured: GI50

O=c1c2cc(-c3ccccc3)sc2nc2n1N=C(c1ccccc1)CS2
inactive: [1] 19.7 µM | [2] 12.4 µM | [3] > 100 µM | [4] 76 µM | [5] > 100 µM | [6] 28.9 µM | [7] 13.5 µM | [8] 15.5 µM | [9] > 10 µM | [10] > 100 µM | [11] 21.4 µM | [12] > 10 µM | [13] 24.1 µM | [14] > 100 µM | [15] 24.3 µM | [16] 10.6 µM | [17] 11.4 µM | [18] 13.4 µM | [19] 20.6 µM

CC1CN=C(Nc2ccc(F)c(Cl)c2)S1 (stereo unspecified)
inactive: [1] 95.3 µM | [2] > 100 µM | [3] 39.3 µM | [4] 51.5 µM | [5] > 10 µM | [6] 72.4 µM | [7] 53.6 µM | [8] > 100 µM | [9] > 100 µM | [10] > 100 µM | [11] 62.8 µM | [12] 81.7 µM | [13] 86.5 µM | [20] > 100 µM | [14] 29.9 µM | [15] 92.3 µM | [16] > 100 µM | [17] > 100 µM | [18] 42.5 µM | [19] 58.5 µM

NC1CNC(=O)c2c(Cl)sc(Cl)c21 (stereo unspecified)
inactive: [1] > 100 µM | [2] > 100 µM | [3] > 100 µM | [4] > 100 µM | [5] 78.5 µM | [6] > 100 µM | [7] > 100 µM | [8] > 100 µM | [9] > 100 µM | [10] > 100 µM | [11] > 100 µM | [12] > 100 µM | [13] > 100 µM | [20] > 100 µM | [14] > 10 µM | [15] > 100 µM | [16] > 100 µM | [17] > 100 µM | [18] > 100 µM

CCCCNC(=O)Nc1c(C(N)=O)c2n(c1C(=O)OCC)CCCCC2
inactive: [1] > 100 µM | [2] > 100 µM | [3] > 100 µM | [4] > 100 µM | [5] > 100 µM | [6] > 100 µM | [7] > 100 µM | [8] > 100 µM | [9] > 100 µM | [11] > 100 µM | [12] > 100 µM | [13] > 100 µM | [20] > 100 µM | [14] > 100 µM | [15] > 100 µM | [16] > 100 µM | [17] > 100 µM | [18] > 100 µM | [19] > 100 µM

O=S1(=O)OCCOS(=O)(=O)C1C1c2ccccc2-c2ccccc21
inactive: [1] 20.7 µM | [2] 21.7 µM | [3] 28.6 µM | [4] 28.7 µM | [5] 15.6 µM | [6] 90.4 µM | [7] 29.7 µM | [8] 29 µM | [9] 34 µM | [10] 72.3 µM | [11] > 100 µM | [12] 23.5 µM | [13] 36.4 µM | [20] 70.3 µM | [14] 15.5 µM | [15] 28.9 µM | [16] 40.3 µM | [17] 27.2 µM | [18] 25.7 µM | [19] 28.7 µM

CC(=O)O[C@H]1[C@@H](N2CCOCC2)C[C@H]2[C@@H]3CC=C4C[C@@H](N5CCCC5)CC[C@]4(C)[C@H]3CC[C@@]21C
inactive: [1] > 100 µM | [2] > 100 µM | [3] > 100 µM | [4] > 100 µM | [5] > 100 µM | [6] > 100 µM | [7] > 100 µM | [8] > 100 µM | [9] 5.21 µM | [10] > 100 µM | [11] > 100 µM | [12] > 100 µM | [13] > 100 µM | [20] > 100 µM | [14] 56.4 µM | [15] > 100 µM | [16] > 100 µM | [17] > 100 µM | [18] > 100 µM | [19] > 100 µM

Cc1cc(S(=O)(=O)NC2=Nc3ccc(Cl)cc3C(c3ccccc3)N2)c(S)cc1Cl (stereo unspecified)
inactive: [1] 33.8 µM | [2] > 100 µM | [3] 97.1 µM | [4] > 100 µM | [5] 62.5 µM | [6] 1.84 µM | [7] > 100 µM | [8] 20.9 µM | [9] > 100 µM | [10] > 100 µM | [11] > 100 µM | [12] > 100 µM | [13] > 100 µM | [14] > 100 µM | [15] 9.12 µM | [16] > 100 µM | [17] > 100 µM | [18] > 100 µM | [19] > 100 µM
